These results are taken from ChEMBL document CHEMBL5579896, “Discovery of 2-Aryl-4-aminoquinazolin-Based LSD1 Inhibitors to Activate Immune Response in Gastric Cancer” (J Med Chem, 2024).

Data set [1] concerns the target T1, Histone-lysine N-methyltransferase EHMT2 (Homo sapiens) (UniProt Q96KQ7).
T1 sequence (whole entry): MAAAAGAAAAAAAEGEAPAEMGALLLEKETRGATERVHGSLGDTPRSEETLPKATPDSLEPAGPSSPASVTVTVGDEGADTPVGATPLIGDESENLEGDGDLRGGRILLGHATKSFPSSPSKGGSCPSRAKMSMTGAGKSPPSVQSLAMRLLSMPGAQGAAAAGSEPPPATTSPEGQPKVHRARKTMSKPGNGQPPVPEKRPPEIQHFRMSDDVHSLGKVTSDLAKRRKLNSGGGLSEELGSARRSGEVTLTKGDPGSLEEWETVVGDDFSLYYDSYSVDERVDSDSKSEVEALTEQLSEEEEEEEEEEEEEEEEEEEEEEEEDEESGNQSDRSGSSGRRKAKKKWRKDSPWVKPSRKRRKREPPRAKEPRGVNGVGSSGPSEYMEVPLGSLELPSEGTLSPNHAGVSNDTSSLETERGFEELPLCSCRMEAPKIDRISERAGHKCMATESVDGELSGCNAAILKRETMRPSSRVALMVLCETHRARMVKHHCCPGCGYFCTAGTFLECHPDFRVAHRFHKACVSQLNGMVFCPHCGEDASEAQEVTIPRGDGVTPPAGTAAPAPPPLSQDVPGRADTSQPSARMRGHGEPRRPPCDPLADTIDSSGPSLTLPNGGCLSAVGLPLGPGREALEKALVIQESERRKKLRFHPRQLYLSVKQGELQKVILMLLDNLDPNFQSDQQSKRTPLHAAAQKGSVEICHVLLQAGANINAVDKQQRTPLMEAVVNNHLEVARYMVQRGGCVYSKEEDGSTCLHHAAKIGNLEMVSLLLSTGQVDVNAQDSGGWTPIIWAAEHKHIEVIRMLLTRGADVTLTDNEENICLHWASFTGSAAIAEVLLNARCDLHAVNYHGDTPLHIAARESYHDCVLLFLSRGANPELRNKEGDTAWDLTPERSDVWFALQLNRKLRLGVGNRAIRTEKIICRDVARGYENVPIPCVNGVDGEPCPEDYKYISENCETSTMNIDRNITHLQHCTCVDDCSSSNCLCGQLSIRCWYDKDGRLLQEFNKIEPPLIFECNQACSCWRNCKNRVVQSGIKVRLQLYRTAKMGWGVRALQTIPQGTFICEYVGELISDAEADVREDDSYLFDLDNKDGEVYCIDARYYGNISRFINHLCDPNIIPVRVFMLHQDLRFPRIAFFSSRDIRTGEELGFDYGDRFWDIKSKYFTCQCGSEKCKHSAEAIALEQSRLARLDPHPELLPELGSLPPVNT
As to the kind of experiment: Inhibition of G9a (unknown origin).

Data set [2] deals with BGC-823. The data set is described as follows: Effect on LSD1 expression in human BGC-823 cells by Western blotting analysis. The format is functional, cell-based. On the technique in general: A western blot detects proteins with antibodies after separation by electrophoresis.
The subject of data set [3] is MFC. The data set is described as follows: Antitumor activity against MFC cells implanted in mouse assessed as reduction in tumor weight at 10 to 40 mg/kg/day, po administered daily for 2 weeks and measured every 2 days. The format is functional, organism-based. To be noted: dose 10-40 mg/kg/day.
In data set [4] the test system is BGC-823. As to the kind of experiment: Cytotoxicity against human BGC-823 cells assessed as reduction in cell viability at 8 uM incubated for 5 days by SRB assay. The format is toxicity, cell-based. To be noted: bgc-823, 120 h, time 5 day. For orientation: Sulforhodamine B stains cellular protein and so reports cell mass.
The subject of data set [5] is MFC. The data set is described as follows: Downregulation of PD-L1 expression in MFC cells implanted in mouse at 10 to 40 mg/kg/day, po administered daily for 2 weeks and measured every 2 days by Western blotting analysis. In kind it is functional, organism-based. Particulars: dose 10-40 mg/kg/day.
The nature of data set [6]: Toxicity in mouse implanted with MFC assessed as kidney damage at 10 to 40 mg/kg/day, po administered daily for 2 weeks and measured every 2 days by H and E staining based assay. Particulars: in vivo, 336 h, dose 10-40 mg/kg/day. The format is organism-based.
The target in data set [7] is T2, Lysine-specific histone demethylase 2 (Homo sapiens, UniProt Q8NB78).
T2 sequence (Q8NB78 whole entry): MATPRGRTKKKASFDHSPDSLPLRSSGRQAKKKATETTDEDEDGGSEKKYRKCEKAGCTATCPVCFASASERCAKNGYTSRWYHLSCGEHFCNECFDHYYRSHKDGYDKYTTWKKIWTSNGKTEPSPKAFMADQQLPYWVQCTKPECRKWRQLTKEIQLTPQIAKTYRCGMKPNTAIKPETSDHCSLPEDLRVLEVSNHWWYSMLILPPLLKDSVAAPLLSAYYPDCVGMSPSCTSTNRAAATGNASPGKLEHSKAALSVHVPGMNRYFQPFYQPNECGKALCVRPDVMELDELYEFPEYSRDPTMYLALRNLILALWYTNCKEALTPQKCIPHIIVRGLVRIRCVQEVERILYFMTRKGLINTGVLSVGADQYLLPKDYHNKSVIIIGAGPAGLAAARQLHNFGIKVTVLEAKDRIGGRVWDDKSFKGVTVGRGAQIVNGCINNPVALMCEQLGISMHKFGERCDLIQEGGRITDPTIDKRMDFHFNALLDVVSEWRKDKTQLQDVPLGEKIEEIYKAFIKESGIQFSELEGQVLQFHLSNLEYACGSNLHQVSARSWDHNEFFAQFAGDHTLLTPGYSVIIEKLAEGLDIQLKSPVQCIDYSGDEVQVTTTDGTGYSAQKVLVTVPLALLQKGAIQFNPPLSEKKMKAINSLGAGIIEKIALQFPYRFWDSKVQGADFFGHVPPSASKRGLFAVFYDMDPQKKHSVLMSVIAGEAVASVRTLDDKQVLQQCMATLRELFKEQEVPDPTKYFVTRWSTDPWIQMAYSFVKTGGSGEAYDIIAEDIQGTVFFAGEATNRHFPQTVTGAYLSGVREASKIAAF
The data set is described as follows: Inhibition of LSD2 (unknown origin).

For data set [8], the target named is T3, Amine oxidase [flavin-containing] B (Homo sapiens, UniProt P27338).
T3 sequence (P27338 whole entry): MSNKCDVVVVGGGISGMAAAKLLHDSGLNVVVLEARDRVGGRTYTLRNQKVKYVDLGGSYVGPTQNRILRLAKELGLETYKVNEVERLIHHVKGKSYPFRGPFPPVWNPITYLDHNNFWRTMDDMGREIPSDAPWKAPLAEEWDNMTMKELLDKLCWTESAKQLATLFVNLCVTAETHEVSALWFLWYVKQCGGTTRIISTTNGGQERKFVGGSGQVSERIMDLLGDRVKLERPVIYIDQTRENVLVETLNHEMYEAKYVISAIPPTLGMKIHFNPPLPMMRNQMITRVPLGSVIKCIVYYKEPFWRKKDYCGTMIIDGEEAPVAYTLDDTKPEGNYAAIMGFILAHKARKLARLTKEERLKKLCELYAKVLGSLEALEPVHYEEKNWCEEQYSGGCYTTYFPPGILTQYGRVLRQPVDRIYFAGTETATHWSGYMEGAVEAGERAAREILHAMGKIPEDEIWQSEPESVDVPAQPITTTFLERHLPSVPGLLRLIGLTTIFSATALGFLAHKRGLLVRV
The data set is described as follows: Inhibition of MAO-B (unknown origin).

In data set [9] the test system is MFC. As to the kind of experiment: Downregulation of PD-L1 expression in MFC cells incubated for 5 days by Western blotting analysis. In kind it is functional, cell-based. To be noted: Mus musculus, dose 2-8 µM, time 5.0 day.
Data set [10] has as its system BGC-823. The data set is described as follows: Effect on H3K4me3 methylation in LSD1 knockout human BGC-823 cells at 2 to 8 uM by Western blotting analysis. Particulars: dose 2-8 µM. In kind it is functional, cell-based.
Data set [11] in a line: Cmax in ICR mouse at 40 mg/kg, po measured upto 24 hrs by LC-MS/MS analysis. In kind it is ADME, organism-based. Particulars: in vivo.
In data set [12] the test system is MFC. The data set is described as follows: Downregulation of PD-L1 expression in MFC cells at 2 to 8 uM by Western blotting analysis. Particulars: Mus musculus, dose 2-8 µM, TDE = time-dependent effect. The format is functional, cell-based.
A short description of data set [13]: AUC in ICR mouse at 40 mg/kg, po measured upto 24 hrs by LC-MS/MS analysis. In kind it is ADME, organism-based. To be noted: in vivo.
Data set [14] concerns MFC. As to the kind of experiment: Antitumor activity against MFC cells implanted in mouse assessed as increase in infiltration of CD4+ cells at 10 to 40 mg/kg/day, po administered daily for 2 weeks and measured every 2 days by immunohistochemistry assay. In kind it is functional, organism-based. Particulars: dose 10-40 mg/kg/day.
Data set [15] concerns BGC-823. The data set is described as follows: Downregulation of PD-L1 expression in human BGC-823 cells incubated for 5 days by Western blotting analysis. Particulars: dose 2-8 µM, time 5.0 day. In kind it is functional, cell-based.
The subject of data set [16] is BGC-823. As to the kind of experiment: Effect on H3K4me1 methylation in LSD1 knockout human BGC-823 cells at 2 to 8 uM by Western blotting analysis. The format is functional, cell-based. To be noted: dose 2-8 µM.
Data set [17] concerns the target Epidermal growth factor receptor (Homo sapiens) (UniProt P00533). The data set is described as follows: Inhibition of EGFR (unknown origin).
Data set [18] has as its target T4, MAO-B (Amine oxidase [flavin-containing] B) (Homo sapiens, UniProt P27338).
T4 sequence (P27338 whole entry): T3 sequence (P27338 whole entry)
The data set is described as follows: Inhibition of MAO-B (unknown origin) at 10 uM relative to control.

Data set [19] deals with BGC-823. The data set is described as follows: Anticancer activity against human BGC-823 cells cocultured with human monocytes assessed as increase in CD3/CD28 activated T-cell killing response incubated for 5 days by microscopic analysis. In kind it is functional, cell-based. Particulars: dose 2-8 µM, time 5.0 day.

Active and inactive are the calls of the source. The calls are words filed in the database; no cut-off is given here.

Sequence of Epidermal growth factor receptor (Homo sapiens) (P00533 whole entry): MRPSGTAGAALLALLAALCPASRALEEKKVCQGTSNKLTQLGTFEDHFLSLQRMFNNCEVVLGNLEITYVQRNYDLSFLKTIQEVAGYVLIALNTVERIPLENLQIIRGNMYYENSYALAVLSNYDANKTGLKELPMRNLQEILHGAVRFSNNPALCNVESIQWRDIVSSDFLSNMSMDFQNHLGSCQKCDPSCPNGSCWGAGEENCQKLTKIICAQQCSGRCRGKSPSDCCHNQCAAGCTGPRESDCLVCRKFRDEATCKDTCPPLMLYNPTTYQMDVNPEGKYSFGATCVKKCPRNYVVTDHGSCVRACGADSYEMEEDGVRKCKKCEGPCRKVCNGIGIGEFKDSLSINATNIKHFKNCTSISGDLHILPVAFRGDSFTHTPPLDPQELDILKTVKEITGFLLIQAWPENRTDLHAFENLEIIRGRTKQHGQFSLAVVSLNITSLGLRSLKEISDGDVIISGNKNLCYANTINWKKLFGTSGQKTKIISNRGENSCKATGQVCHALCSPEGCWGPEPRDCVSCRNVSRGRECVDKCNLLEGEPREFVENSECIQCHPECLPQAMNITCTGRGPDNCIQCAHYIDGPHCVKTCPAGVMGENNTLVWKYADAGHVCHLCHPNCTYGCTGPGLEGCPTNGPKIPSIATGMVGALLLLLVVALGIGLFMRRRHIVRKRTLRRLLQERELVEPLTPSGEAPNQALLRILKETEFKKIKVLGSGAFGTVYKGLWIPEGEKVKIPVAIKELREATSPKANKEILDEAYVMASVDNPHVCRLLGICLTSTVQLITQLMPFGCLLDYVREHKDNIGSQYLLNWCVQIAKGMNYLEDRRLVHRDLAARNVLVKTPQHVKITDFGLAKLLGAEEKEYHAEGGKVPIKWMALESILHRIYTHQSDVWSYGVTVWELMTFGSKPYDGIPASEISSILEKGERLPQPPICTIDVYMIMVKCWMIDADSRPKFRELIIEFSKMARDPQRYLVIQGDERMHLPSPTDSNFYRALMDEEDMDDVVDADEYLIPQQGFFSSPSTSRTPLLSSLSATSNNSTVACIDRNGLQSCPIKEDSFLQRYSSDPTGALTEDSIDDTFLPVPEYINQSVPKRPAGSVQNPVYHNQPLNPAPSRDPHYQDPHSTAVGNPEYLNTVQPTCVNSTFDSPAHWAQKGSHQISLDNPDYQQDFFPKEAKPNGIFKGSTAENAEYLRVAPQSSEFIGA

The term inhibition denotes the relative decrease from the control value, in per cent. For orientation: IC50 means the concentration that inhibits the measured activity by half. Low values mean greater potency, high ones weaker potency. Broadly, the Cmax is the peak of the concentration-time curve. What is called AUC is concentration integrated over time. Lower therefore signals less exposure. For `CCN(CC)c1ccc(Nc2nc(-c3ccc(S(C)(=O)=O)cc3)nc3ccccc23)cc1`, the inhibition entry in data set [1] and in [17] was “inactive” in each case. The outcome in the data set with BGC-823 [2], with BGC-823 [10] and in the data set with BGC-823 [16] was inactive. Also, the result in the data set with MFC [3], in the data set on MFC [5] and with MFC [14] was Active. In addition, the Activity entry was “Non-Toxic” in the data set with BGC-823 [4]; “Non-Toxic” in data set [6]; “Dose-Dependent Effect” in the data set on MFC [9]; “Tde” in the data set with MFC [12]; “Dose-Dependent Effect” in the data set with BGC-823 [15]; “Dose-Dependent Effect” in the data set on BGC-823 [19]. The IC50 in data set [7] and in data set [8] was more than 10 µM throughout. In data set [11], the peak concentration (Cmax) was 613 ng/mL. The AUC at 24 h in [13] is 2250 ng·h/mL. For the same molecule, in data set [18], the inhibition at 10 µM was less than 10%.
